# Patent EP0338532A2, “N-alkylamino derivates of aromatic, tricyclic compounds in the treatment of drug-resistant protozoal infections” (priority 1988, dated 1989)
# Tests used:
# P. falciparum (FCR3) = assay: [3H]-hypoxanthine incorporation, parasite growth inhibition (chloroquine-resistant strain FCR3); format: cell-based, Plasmodium falciparum
# Experimental: P. falciparum (clone D6, chloroquine-sensitive; strain FCR3, chloroquine-resistant; and clone W2, multidrug-resistant) was grown in vitro by the method of Trager and Jensen, (1976) Science 193, 673-675. • Figure 1 illustrates the effect of desipramine on the inhibition of parasite growth. […] Isobologram analysis was carried out according to the method of Martin, et al., (1987) Science 235, 899-901 and Berenbaum, (1978) Journal of Infectious Diseases 137, 122-130. […] The X-axis is the IC₅₀ (concentration of drug which inhibits hypoxanthine incorporation by 50%) of chloroquine in the absence or presence of desipramine while the Y-axis is the IC₅₀ for desipramine in the absence or presence of chloroquine. […] Dose-response curves and IC₅₀'s for chloroquine were determined either in the absence of desipramine or in the presence of a fixed concentration of desipramine ranging from 50 ng desipramine/ml up to 500 ng desipramine/ml. […] Clinically achievable plasma concentrations of desipramine in depressed patients are in the range of 50 - 200 ng/ml. Desipramine (500 ng/ml) lowered the IC₅₀ and IC₉₀ for chloroquine by 10-fold. An IC₅₀ for a chloroquine-sensitive P. falciparum strain would be approximately 5 ng/ml. Therefore in the presence of clinically relevant concentrations of desipramine, the chloroquine-resistant P. falciparum strain is as sensitive to chloroquine as is the "sensitive" strain. • Figure 4 illustrates the ability of desipramine to enhance the potency of chloroquine against P. falciparum (W2). The experiment is identical to that of Figure 3 but a different strain of P. falciparum was used. […] The IC₅₀ and IC₉₀ for chloroquine are lowered by a factor of approximately 10. […] The anti-psycotic, chloropromazine, was substituted for desipramine in an experiment similar to that in Figure 2. • Figure 7. […] Uptake of [3H]-chloroquine was followed in clone D6 (chloroquine susceptible, ·) and in clone W2 (multidrug-resistant, o) in the absence or presence of desipramine.
# [1] = system: chloroquine-sensitive P. falciparum strain; conditions: stated as 'would be approximately'; cited from earlier work
# P. falciparum (W2) = format: cell-based, Plasmodium falciparum
# Experimental: (§1) P. falciparum (clone D6, chloroquine-sensitive; strain FCR3, chloroquine-resistant; and clone W2, multidrug-resistant) was grown in vitro by the method of Trager and Jensen, (1976) Science 193, 673-675. • Figure 1 illustrates the effect of desipramine on the inhibition of parasite growth. […] Isobologram analysis was carried out according to the method of Martin, et al., (1987) Science 235, 899-901 and Berenbaum, (1978) Journal of Infectious Diseases 137, 122-130. […] The X-axis is the IC₅₀ (concentration of drug which inhibits hypoxanthine incorporation by 50%) of chloroquine in the absence or presence of desipramine while the Y-axis is the IC₅₀ for desipramine in the absence or presence of chloroquine. […] Dose-response curves and IC₅₀'s for chloroquine were determined either in the absence of desipramine or in the presence of a fixed concentration of desipramine ranging from 50 ng desipramine/ml up to 500 ng desipramine/ml. […] Clinically achievable plasma concentrations of desipramine in depressed patients are in the range of 50 - 200 ng/ml. Desipramine (500 ng/ml) lowered the IC₅₀ and IC₉₀ for chloroquine by 10-fold. An IC₅₀ for a chloroquine-sensitive P. falciparum strain would be approximately 5 ng/ml. […]
# [2] = system: chloroquine-susceptible clone D6 of P. falciparum; assay: [3H]-hypoxanthine incorporation, parasite growth inhibition (chloroquine-susceptible clone D6); format: cell-based, Plasmodium falciparum; conditions: Figure 5, experiment similar to Figures 3 and 4
# Experimental: as §1
# [3] = system: clone W2 (multidrug-resistant); assay: Uptake of [3H]-chloroquine by parasites (clone W2); format: cell-based, P. falciparum; conditions: Figure 7; drug-resistant parasites, presence vs absence of desipramine
# Experimental: as §1
# [4] = depressed patients; cited from earlier work
# [5] = Figure 3, desipramine 500 ng/ml, FCR3
compound,measurement,setting,value
CN(C)CCCN1c2ccccc2Sc2ccc(Cl)cc21 [chloropromazine],synergism of chloropromazine and chloroquine (isobologram),"P. falciparum (FCR3); Figure 6, experiment similar to Figure 2, combination with chloroquine",synergism
CCN(CC)CCCC(C)Nc1ccnc2cc(Cl)ccc12 (stereo not drawn) [chloroquine],IC50,[1],approximately 5 ng/ml
"CNCCCN1c2ccccc2CCc2ccccc21 [desipramine, Desipramine]",lowering of the IC50 for chloroquine,P. falciparum (FCR3); [5],10 fold
same,lowering of the IC90 for chloroquine,P. falciparum (FCR3); [5],10 fold
same,effects on P. falciparum when desipramine was added alone,"P. falciparum (W2); Figure 4, at the desipramine concentrations used, without chloroquine",only slight effects
same,sensitivity of the strain to desipramine,P. falciparum (W2); W2 compared with FCR3,more sensitive
same,change of the response to chloroquine,[2],does not change the response
same,accumulation of chloroquine by parasites,[3],increases the accumulation of chloroquine
same,Clinically achievable plasma concentrations,[4],50 to 200 ng/mL
